Data set [1] concerns HepG2 human hepatoma cells. The data set can be described thus: HepG2 cytotoxicity, MTS cell proliferation assay. It is filed as cell-based. The conditions noted are these: 48 h, n=1. The procedure: (§1) Select compounds described herein were evaluated for structure-activity analyses for anti-plasmodial activity in vitro. For Dd2 EC50 (M), calculations were for n=3. For HepG2 EC50 (M), calculations were for n=1. For the human microsomal stability determination, t was 60 minutes.
Selected compounds were evaluated for cytotoxicity using HepG2 human hepatoma cells. A 384-well clear bottom plate was seeded with 2,500 cells/well and incubated for 24 h. Serial dilutions of the compound (were added to the plate and plates were incubated for an additional 48 h. Viability of cells were assessed by MTS [(3-(4,5-dimethylthiazol-2-yl)-5-(3-carboxymethoxyphenyl)-2-(4-sulfophenyl)-2H-tetrazolium) cell proliferation assay (CellTiter 96® Aqueous non-radioactive cell proliferation assay, Promega) (See Cory et al., Cancer Communications, 3, 1991, p. 207-212).
On the technique in general: Tetrazolium assays rely on reduction of a dye to a coloured formazan, in cell work by metabolically active cells.

For a further data set, the system named is P. falciparum Dd2. Put plainly: Anti-plasmodial growth inhibition, SYBR green I-based DNA quantification. It is filed as cell-based. To be noted: Plasmodium falciparum, 72 h incubation, n=3. The procedure: as §1
Different dilutions of the compound in RPMI 1640 (Life Technologies) from a stock of 10 mM in dimethyl sulfoxide (DMSO) were added to the culture at a 1% parasitemia and 2% hematocrit in 96-well black plates (Santa Cruz Biotechnology). Maximum DMSO concentration in the culture never exceeded 0.25%. Chloroquine at 1 μM was used as a positive control to determine the baseline value. Following 72 h incubation at 37° C., the ability of the compounds to inhibit growth of the parasite was determined by a SYBR green I-based DNA quantification assay (See Bennett et al., 2004, Chemother. 48, 1807-1810; see also Johnson et al., 2007, Antimicrob. Agents. Chemother. 51, 1926-1933; Smilkstein et al., 2004, Antimicrob. Agents. Chemother. 48, 1803-1806). EC50 was calculated (n=3) from a dose response curve that was generated from a concentration range of 0-20 μM using GraphPad Prism v5.0.

Data set [2] can be described thus: Plasma pharmacokinetics and liver distribution study in female BALB/c mice. It counts as in vivo, mouse. The conditions noted are these: for AUC(0-inf) / Tmax / half-life / Cmax: female, BALB/c, mouse. The procedure:
A plasma pharmacokinetics and liver distribution study of selected compounds, including Pyrrolopyridine-008 (2015-foleyc-216), Pyrrolopyridine-D20-ent (2015-foleyc-217), and Pyrrolopyridine-M03 (2015-foleyc-218), in female BALB/c mice was conducted following a single intraperitoneal and oral administration. […] The blood samples were collected from a set of […] mice at each time point in labeled micro centrifuge tube containing K2EDTA as anticoagulant. Plasma samples were separated by centrifugation at 4000 rpm for 10 min and stored below −70° C. until bioanalysis. After collection of blood sample, animals were humanely euthanized by carbon dioxide asphyxiation to collect liver from Group 1 and Group 2 at all the time points. The collected tissues were rinsed in PBS and were homogenized with nine times of liver weight in ice cold phosphate buffer saline (pH 7.4) and stored below −70° C. until bio-analysis. Total homogenate volume was ten times the tissue weight. All samples were processed for analysis by protein precipitation using acetonitrile and analyzed with fit-for-purpose LC-MS/MS method (LLOQ: 2.01 ng/mL for plasma and 50.30 ng/g for liver). Pharmacokinetic parameters were calculated using the non-compartmental analysis tool of Phoenix WinNonlin® (Version 6.3).

Where [3] appears, read: ip, Dose: 100 mg/kg, liver, read-out: PK (ip, plasma/liver) AUCinf, liver.
Setting [4] is: ip, Dose: 100 mg/kg, liver, read-out: PK (ip, plasma/liver) Tmax, liver.
Where [5] appears, read: ip, Dose: 100 mg/kg, liver, read-out: PK (ip, plasma/liver) t1/2, liver (converted).
Setting [6] is: ip, Dose: 100 mg/kg, plasma, read-out: PK (ip, plasma/liver) AUCinf, plasma.
Where [7] appears, read: ip, Dose: 100 mg/kg, plasma, read-out: PK (ip, plasma/liver) Cmax, plasma.
The mark [8] stands for this setting: ip, Dose: 100 mg/kg, plasma, read-out: PK (ip, plasma/liver) Tmax, plasma.
Setting [9] is: ip, Dose: 100 mg/kg, plasma, read-out: PK (ip, plasma/liver) t1/2, plasma (converted).
[10] abbreviates: po, Dose: 100 mg/kg, liver, read-out: PK (po, plasma/liver) Area under the curve (AUCinf), liver.
The mark [11] stands for this setting: po, Dose: 100 mg/kg, liver, read-out: PK (po, plasma/liver) Tmax, liver.
Setting [12] is: po, Dose: 100 mg/kg, liver, read-out: PK (po, plasma/liver) t1/2, liver (converted).
The mark [13] stands for this setting: po, Dose: 100 mg/kg, plasma, read-out: PK (po, plasma/liver) Area under the curve (AUCinf), plasma.
Where [14] appears, read: po, Dose: 100 mg/kg, plasma, read-out: PK (po, plasma/liver) Cmax, plasma.
[15] abbreviates: po, Dose: 100 mg/kg, plasma, read-out: PK (po, plasma/liver) Tmax, plasma.
The mark [16] stands for this setting: po, Dose: 100 mg/kg, plasma, read-out: PK (po, plasma/liver) t1/2, plasma (converted).

Structures are written as SMILES. Read-outs that look alike come from different tables or passages of the source.

On to `CC(C)(C)[S@@+]([O-])N1Cc2cc(C(=O)NCc3ccc4c(c3)OCO4)nc(-c3cccc(-c4cccnc4)c3)c2C1` [2015-foleyc-212, (R)-N-(benzo[d][1,3]dioxol-5-ylmethyl)-2-(tert-butylsulfinyl)-4-(3-(pyridin-3-yl)phenyl)-2,3-dihydro-1H-pyrrolo[3,4-c]pyridine-6-carboxamide], for which the EC50 in data set [1] is greater than 100 µM; in the data set with P. falciparum Dd2, greater than 25 µM.
Turning to `CC(C)(C)[S@@+]([O-])N1Cc2cc(C(=O)NCc3ccccc3F)nc(-c3cccc(-c4cccnc4)c3)c2C1` [2015-foleyc-213, (R)-2-(tert-butylsulfinyl)-N-(2-fluorobenzyl)-4-(3-(pyridin-3-yl)phenyl)-2,3-dihydro-1H-pyrrolo[3,4-c]pyridine-6-carboxamide], the results for the EC50 (in data set [1]; with P. falciparum Dd2) were greater than 100 µM and greater than 25 µM, respectively.
For the compound `CC(C)(C)[S@@+]([O-])N1Cc2cc(C(=O)NCc3ccc4c(c3)OCO4)nc(-c3cccc(-c4cc5ccccc5o4)c3)c2[C@H]1CCO` [2015-foleyc-219, (R)-N-(benzo[d][1,3]dioxol-5-ylmethyl)-4-(3-(benzofuran-2-yl)phenyl)-2-((R)-tert-butylsulfinyl)-3-(2-hydroxyethyl)-2,3-dihydro-1H-pyrrolo[3,4-c]pyridine-6-carboxamide], the EC50 was greater than 100 µM in data set [1] and 1.39 ± 0.13 µM with P. falciparum Dd2.
On the same counts, the results for `CC(C)(C)[S@@+]([O-])N1Cc2cc(C(=O)NCc3ccccc3F)nc(-c3cccc(-c4cc5ccccc5o4)c3)c2[C@H]1CCO` [2015-foleyc-220, (R)-4-(3-(benzofuran-2-yl)phenyl)-2-((R)-tert-butylsulfinyl)-N-(2-fluorobenzyl)-3-(2-hydroxyethyl)-2,3-dihydro-1H-pyrrolo[3,4-c]pyridine-6-carboxamide] are greater than 100 µM and greater than 25 µM.
For `CC(C)(C)[S@@+]([O-])N1Cc2cc(C(=O)NCC(F)(F)F)nc(-c3cccc(-c4cc5ccccc5o4)c3)c2[C@H]1CCO` [2015-foleyc-226, (R)-4-(3-(benzofuran-2-yl)phenyl)-2-((R)-tert-butylsulfinyl)-3-(2-hydroxyethyl)-N-(2,2,2-trifluoroethyl)-2,3-dihydro-1H-pyrrolo[3,4-c]pyridine-6-carboxamide], the EC50 in data set [1] is greater than 100 µM; in the data set with P. falciparum Dd2, greater than 25 µM.
Take `CC(C)NC(=O)N1Cc2cc(C(=O)NCC(F)(F)F)nc(-c3cccc(-c4cc5ccccc5o4)c3)c2[C@H]1CCO` [drawing 328]: the “Relative Bioavailability, Frel (AUCinf po / AUCinf ip)” value in data set [2] (Dose: 50 mg/kg) is on record as 57%. Also, the AUC(0-inf) stood at 186 µM·h in data set [2] (ip, Dose: 50 mg/kg, liver, read-out: PK (ip, plasma/liver) AUCinf, liver); 52.7 µM·h in data set [2] (ip, Dose: 50 mg/kg, plasma, read-out: PK (ip, plasma/liver) AUCinf, plasma); 108 µM·h in data set [2] (po, Dose: 50 mg/kg, liver, read-out: PK (po, plasma/liver) Area under the curve (AUCinf), liver); 29.9 µM·h in data set [2] (po, Dose: 50 mg/kg, plasma, read-out: PK (po, plasma/liver) Area under the curve (AUCinf), plasma). The Tmax was determined as 0.1 h in data set [2] (ip, Dose: 50 mg/kg, liver, read-out: PK (ip, plasma/liver) Tmax, liver); 1 h in data set [2] (ip, Dose: 50 mg/kg, plasma, read-out: PK (ip, plasma/liver) Tmax, plasma); 0.25 h in data set [2] (po, Dose: 50 mg/kg, liver, read-out: PK (po, plasma/liver) Tmax, liver); 0.25 h in data set [2] (po, Dose: 50 mg/kg, plasma, read-out: PK (po, plasma/liver) Tmax, plasma). For the same compound, the half-life in data set [2] (ip, Dose: 50 mg/kg, liver, read-out: PK (ip, plasma/liver) t1/2, liver (converted)) was 2.2 h; in data set [2] (ip, Dose: 50 mg/kg, plasma, read-out: PK (ip, plasma/liver) t1/2, plasma (converted)), 1.2 h; in data set [2] (po, Dose: 50 mg/kg, liver, read-out: PK (po, plasma/liver) t1/2, liver (converted)) it was 3.1 h; in data set [2] (po, Dose: 50 mg/kg, plasma, read-out: PK (po, plasma/liver) t1/2, plasma (converted)) it was 8.2 h. For the same compound, the Cmax came out at 14 µM in data set [2] (ip, Dose: 50 mg/kg, plasma, read-out: PK (ip, plasma/liver) Cmax, plasma) and 10.9 µM in data set [2] (po, Dose: 50 mg/kg, plasma, read-out: PK (po, plasma/liver) Cmax, plasma). Moreover, the “PK (ip, plasma/liver) Cmax, liver” value in data set [2] (ip, Dose: 50 mg/kg, liver) stood at 58.6 µM. Besides, the “PK (po, plasma/liver) Cmax, liver” value in data set [2] (po, Dose: 50 mg/kg, liver) came to 53.8 µM.
In the case of `CC(C)(C)[S@@+]([O-])N1Cc2cc(C(=O)NCc3ccc4c(c3)OCO4)nc(-c3cccc(-c4cccnc4)c3)c2[C@H]1CCO` [drawing 329], in data set [2] (Dose: 100 mg/kg), the “Relative Bioavailability, Frel (AUCinf po / AUCinf ip)” value is reported as 49%. Besides, the AUC(0-inf) in data set [2] (setting [3]) was found to be 667 µM·h; in data set [2] (setting [6]), 158 µM·h; in data set [2] (setting [10]), 238 µM·h; in data set [2] (setting [13]) it was 77.1 µM·h. Besides, the Tmax in data set [2] (setting [4]) came out at 0.5 h; in data set [2] (setting [8]), 0.5 h; in data set [2] (setting [11]) it was 4 h; in data set [2] (setting [15]) it was 1 h. Also, the half-life is 3.5 h in data set [2] (setting [5]), 2.4 h in data set [2] (setting [9]), 16.9 h in data set [2] (setting [12]) and 1.1 h in data set [2] (setting [16]). For the same compound, the Cmax in data set [2] (setting [7]) was 33.4 µM; in data set [2] (setting [14]), 27.6 µM. Further, the “PK (ip, plasma/liver) Cmax, liver” value in data set [2] (ip, Dose: 100 mg/kg, liver) is 87.6 µM. In addition, the “PK (po, plasma/liver) Cmax, liver” value in data set [2] (po, Dose: 100 mg/kg, liver) amounted to 39.6 µM.
Regarding `CC(C)(C)[S@@+]([O-])N1Cc2cc(C(=O)NCc3ccccc3F)nc(-c3cccc(-c4cccnc4)c3)c2[C@H]1CCO` [drawing 330], the “Relative Bioavailability, Frel (AUCinf po / AUCinf ip)” value in data set [2] (Dose: 100 mg/kg) is 22%. The AUC(0-inf) in data set [2] (setting [3]) stood at 306 µM·h; in data set [2] (setting [6]), 168 µM·h; in data set [2] (setting [10]), 125 µM·h; in data set [2] (setting [13]) it was 36.7 µM·h. Also, the Tmax in data set [2] (setting [4]) came out at 0.25 h; in data set [2] (setting [8]) it was 1 h; in data set [2] (setting [11]), 0.5 h; in data set [2] (setting [15]), 0.5 h. The half-life was 4.6 h in data set [2] (setting [5]), 1.9 h in data set [2] (setting [9]), 6.4 h in data set [2] (setting [12]) and 2.1 h in data set [2] (setting [16]). For the same compound, the Cmax was 72.6 µM in data set [2] (setting [7]) and 56.4 µM in data set [2] (setting [14]). For the same compound, the “PK (ip, plasma/liver) Cmax, liver” value in data set [2] (ip, Dose: 100 mg/kg, liver) is 111.3 µM. The “PK (po, plasma/liver) Cmax, liver” value in data set [2] (po, Dose: 100 mg/kg, liver) is 49.2 µM.
In the case of `CC(C)(C)[S@+]([O-])N1Cc2cc(C(=O)NCc3ccc4c(c3)OCO4)nc(-c3cccc(-c4cccnc4)c3)c2[C@@H]1CCO` [ent-Tan003-008], the response in the data set on P. falciparum Dd2 was half-maximal at 0.86 ± 0.08 µM (EC50).

The term EC50 denotes the concentration at which the effect is half-maximal. Low readings indicate an effect from little substance, high ones a need for much substance.

These data come from patent publication US12071436B2, “Anti-parasitic compounds and uses thereof” (Memorial Sloan-Kettering Cancer Center, priority 2016, dated 2024).
